# According to PubChem BioAssay AID1963843 (Molecular Pharmacology Branch, DTP, NCI, 2024):
# pIC50: −log10 of the molar value.
# Test system: 616215-338-R-J1-PDC complex spheroid viability
# Test: Anticancer human tumor 616215-338-R-J1-PDC patient-derived colon adenocarcinoma cell line growth inhibition [POLQ]
# Conditions: for pIC50: curve of first compound; for viability, T/C: stronger effect = lower value
# Method in brief: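 Complex spheroid viability model combining PDC tumour cells with endothelial (HUVEC) and MSC stromal cells. Novobiocin, ART-558 or RP6685 were tested singly and in combination with standard and investigational anticancer drugs. Each was titrated in half-log steps from near clinical Cmax, or from 10 microM where Cmax was unknown.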
# [1] = second compound 0.0316 µM, first compound 0.0316 µM
# [2] = second compound 0.0316 µM, first compound 0.1 µM
# [3] = second compound 0.0316 µM, first compound 0.316 µM
# [4] = second compound 0.0316 µM, first compound 1 µM
# [5] = second compound 0.0316 µM, first compound 3.16 µM
# [6] = second compound 0.0316 µM, first compound 10 µM
# [7] = second compound 0.1 µM, first compound 0.0316 µM
# [8] = second compound 0.1 µM, first compound 0.1 µM
# [9] = second compound 0.1 µM, first compound 0.316 µM
# [10] = second compound 0.1 µM, first compound 1 µM
# [11] = second compound 0.1 µM, first compound 3.16 µM
# [12] = second compound 0.1 µM, first compound 10 µM
# [13] = second compound 0.316 µM, first compound 0.0316 µM
# [14] = second compound 0.316 µM, first compound 0.1 µM
# [15] = second compound 0.316 µM, first compound 0.316 µM
# [16] = second compound 0.316 µM, first compound 1 µM
# [17] = second compound 0.316 µM, first compound 3.16 µM
# [18] = second compound 0.316 µM, first compound 10 µM
# [19] = second compound 1 µM, first compound 0.0316 µM
# [20] = second compound 1 µM, first compound 0.1 µM
# [21] = second compound 1 µM, first compound 0.316 µM
# [22] = second compound 1 µM, first compound 1 µM
# [23] = second compound 1 µM, first compound 3.16 µM
# [24] = second compound 1 µM, first compound 10 µM
# [25] = second compound 3.16 µM, first compound 0.0316 µM
# [26] = second compound 3.16 µM, first compound 0.1 µM
# [27] = second compound 3.16 µM, first compound 0.316 µM
# [28] = second compound 3.16 µM, first compound 1 µM
# [29] = second compound 3.16 µM, first compound 3.16 µM
# [30] = second compound 3.16 µM, first compound 10 µM
# [31] = second compound 10 µM, first compound 0.0316 µM
# [32] = second compound 10 µM, first compound 0.1 µM
# [33] = second compound 10 µM, first compound 0.316 µM
# [34] = second compound 10 µM, first compound 1 µM
# [35] = second compound 10 µM, first compound 3.16 µM
# [36] = second compound 10 µM, first compound 10 µM
# 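Note: spheroids exposed to compounds for one week before readout.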
# 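Throughout, for viability, T/C: percent viability relative to DMSO vehicle wells taken as 100%.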
smiles,measurement,setting,value
CC1COCCN1c1cc(C2(S(C)(=N)=O)CC2)nc(-c2ccnc3[nH]ccc23)n1 (stereo unspecified) + Nc1ccc(C#CCN(C(=O)Cc2ncc(C(F)(F)F)cc2C(F)(F)F)c2ccc(F)cc2)nn1,pIC50,second compound 0.0316 µM,5.30
same,pIC50,second compound 0.1 µM,5.27
same,pIC50,second compound 0.316 µM,5.17
same,pIC50,second compound 1 µM,5.27
same,pIC50,second compound 3.16 µM,5.16
same,pIC50,second compound 10 µM,5.54
same,"viability, T/C",[1],115%
same,"viability, T/C",[2],96.5%
same,"viability, T/C",[3],93%
same,"viability, T/C",[4],93.4%
same,"viability, T/C",[5],56.9%
same,"viability, T/C",[6],32.6%
same,"viability, T/C",[7],93.9%
same,"viability, T/C",[8],104%
same,"viability, T/C",[9],94.3%
same,"viability, T/C",[10],94.7%
same,"viability, T/C",[11],63.1%
same,"viability, T/C",[12],34.7%
same,"viability, T/C",[13],101%
same,"viability, T/C",[14],97.6%
same,"viability, T/C",[15],93.8%
same,"viability, T/C",[16],97.3%
same,"viability, T/C",[17],62.3%
same,"viability, T/C",[18],43.7%
same,"viability, T/C",[19],108%
same,"viability, T/C",[20],101%
same,"viability, T/C",[21],90.9%
same,"viability, T/C",[22],84.7%
same,"viability, T/C",[23],59.9%
same,"viability, T/C",[24],36.5%
same,"viability, T/C",[25],87.5%
same,"viability, T/C",[26],95.3%
same,"viability, T/C",[27],87.4%
same,"viability, T/C",[28],83%
same,"viability, T/C",[29],68.8%
same,"viability, T/C",[30],41.6%
same,"viability, T/C",[31],96.5%
same,"viability, T/C",[32],91.5%
same,"viability, T/C",[33],78.2%
same,"viability, T/C",[34],92.1%
same,"viability, T/C",[35],46.5%
same,"viability, T/C",[36],35.5%
CCCS(=O)(=O)Nc1ccc(F)c(C(=O)c2c[nH]c3ncc(-c4ccc(Cl)cc4)cc23)c1F + Nc1ccc(C#CCN(C(=O)Cc2ncc(C(F)(F)F)cc2C(F)(F)F)c2ccc(F)cc2)nn1,pIC50,second compound 0.0316 µM,5.20
same,pIC50,second compound 0.1 µM,5.21
same,pIC50,second compound 0.316 µM,5.21
same,pIC50,second compound 1 µM,5.21
same,pIC50,second compound 3.16 µM,5.21
same,pIC50,second compound 10 µM,5.25
same,"viability, T/C",[1],107%
same,"viability, T/C",[2],109%
same,"viability, T/C",[3],105%
same,"viability, T/C",[4],110%
same,"viability, T/C",[5],114%
same,"viability, T/C",[6],11.4%
same,"viability, T/C",[7],107%
same,"viability, T/C",[8],111%
same,"viability, T/C",[9],110%
same,"viability, T/C",[10],109%
same,"viability, T/C",[11],101%
same,"viability, T/C",[12],11.5%
same,"viability, T/C",[13],101%
same,"viability, T/C",[14],104%
same,"viability, T/C",[15],106%
same,"viability, T/C",[16],105%
same,"viability, T/C",[17],102%
same,"viability, T/C",[18],13.8%
same,"viability, T/C",[19],112%
same,"viability, T/C",[20],114%
same,"viability, T/C",[21],101%
same,"viability, T/C",[22],111%
same,"viability, T/C",[23],102%
same,"viability, T/C",[24],11.9%
same,"viability, T/C",[25],111%
same,"viability, T/C",[26],103%
same,"viability, T/C",[27],107%
same,"viability, T/C",[28],102%
same,"viability, T/C",[29],100%
same,"viability, T/C",[30],13%
same,"viability, T/C",[31],109%
same,"viability, T/C",[32],86.3%
same,"viability, T/C",[33],101%
same,"viability, T/C",[34],94.4%
same,"viability, T/C",[35],92.3%
same,"viability, T/C",[36],9.03%
CNCc1ccc(-c2[nH]c3cc(F)cc4c3c2CCNC4=O)cc1 + Nc1ccc(C#CCN(C(=O)Cc2ncc(C(F)(F)F)cc2C(F)(F)F)c2ccc(F)cc2)nn1,pIC50,second compound 0.0316 µM,5.10
same,pIC50,second compound 0.1 µM,5.14
same,pIC50,second compound 0.316 µM,5.11
same,pIC50,second compound 1 µM,5.12
same,pIC50,second compound 3.16 µM,5.15
same,pIC50,second compound 10 µM,5.21
same,"viability, T/C",[1],101%
same,"viability, T/C",[2],107%
same,"viability, T/C",[3],97%
same,"viability, T/C",[4],104%
same,"viability, T/C",[5],104%
same,"viability, T/C",[6],36.2%
same,"viability, T/C",[7],104%
same,"viability, T/C",[8],111%
same,"viability, T/C",[9],90.3%
same,"viability, T/C",[10],119%
same,"viability, T/C",[11],122%
same,"viability, T/C",[12],25.8%
same,"viability, T/C",[13],102%
same,"viability, T/C",[14],112%
same,"viability, T/C",[15],104%
same,"viability, T/C",[16],95.7%
same,"viability, T/C",[17],119%
same,"viability, T/C",[18],33.4%
same,"viability, T/C",[19],107%
same,"viability, T/C",[20],94.8%
same,"viability, T/C",[21],95.8%
same,"viability, T/C",[22],105%
same,"viability, T/C",[23],106%
same,"viability, T/C",[24],33%
same,"viability, T/C",[25],96.8%
same,"viability, T/C",[26],93.3%
same,"viability, T/C",[27],93.8%
same,"viability, T/C",[28],102%
same,"viability, T/C",[29],105%
same,"viability, T/C",[30],28.6%
same,"viability, T/C",[31],93%
same,"viability, T/C",[32],78.5%
same,"viability, T/C",[33],102%
same,"viability, T/C",[34],103%
same,"viability, T/C",[35],103%
same,"viability, T/C",[36],17.9%
